Patent US20180055370A1, “PHOTOACOUSTIC APPARATUS” (CANON KABUSHIKI KAISHA, priority 2015, published 2018)

Test: Change over time of contrast agent concentration in circulating blood (blood sampling after administration)
Format: in vivo, nude mice
Conditions: threshold value of linearity R^2≧0.8
Text: FIG. 2 is a graph illustrating contrast agent concentration change information obtained from a plurality of blood samplings of nude mice to which a contrast agent has been administered. The vertical axis represents the concentration of coloring material in blood, and the horizontal axis denotes the time elapsed since administration. The graph depicts specifically the change of the concentration after administration of contrast agent in an amount of 20 nanomoles of coloring material equivalent, to the caudal vein of the nude mice. […]
In a case where the contrast agent is administered into the circulating blood as one shot, the contrast agent concentration in the circulating blood decreases exponentially due to clearance with the passage of time, as illustrated in FIG. 2. […] When no signal is acquired within an appropriate lapse of time, therefore, the contrast agent in the circulating blood may in some instances fail to be quantified successfully. […] On the other hand, once a prolonged period of time has elapsed since administration, the contrast agent concentration in the circulating blood decreases, and becomes readily influenced by the sensitivity and/or measurement variability of the measuring instrument. […]

- TIME [hr] (measurement time range over which concentration in blood decreases linearly on a semi-logarithmic axis): 0.08~0.5 hr
SMILES: CC1(C)C(/C=C/C=C/C=C/C=C2\N(CCCCS(=O)(=O)O)c3ccc4ccccc4c3C2(C)C)=[N+](CCCCS(=O)(=O)[O-])c2ccc3ccccc3c21 [ICG, indocyanine green]
